In patent publication US20220105053A1, “PHARMACEUTICAL COMPOSITION FOR PREVENTION OR TREATMENT OF ACIDOSIS” (HAIM BIO CO., LTD., priority 2018, published 2022):

What follows are compounds tested on A549 cancer cells (assay: Lactic acid concentration-decreasing effect in A549 cell culture (lactate assay, luminescence, normalised to cell number)). Conditions: 50 μM candidate substance, 24 hours, compared with the positive control (50 μM sodium oxamate), average of 3 experiments.
Type: cell-based, human
Procedure: To this end, first, A549 cancer cells (adenocarcinomic human alveolar basal epithelial cells, Cat #CCL-185) obtained from the American Type Culture Collection (ATCC) were cultured in RPMI 1640 culture medium containing 10% fetal bovine serum and 1% antibiotic-antimycotic agent under an environment at 37° C. and 5% CO2, and passages were performed every 3 days. Lactic acid is produced in large amounts when glycolysis is activated in hypoxia. Cancer cells, which are densely packed with cells, are very active in energy-consuming activities, and thus are known to produce lactic acid in large amounts.
The cells were seeded in 24-well plates at a concentration of 3×10^5 cells/well, and incubation was performed overnight. Then, each plate was treated with each of the candidate substances (at a concentration of 50 μM) as shown in Table 1 which had been dissolved in dimethyl sulfoxide (DMSO). Incubation was further performed for 24 hours. For the negative control for the candidate substances, no treatment was performed; and for the positive control, treatment with sodium oxamate, which is conventionally known as a therapeutic agent for lactic acidosis, was performed at the same concentration (50 μM) or the […] higher concentration (50 mM). Subsequently, 50 μl of the cell culture solution obtained by being diluted with Dulbecco's Phosphate-Buffered Saline (DPBS), and 50 μl of the lactate assay reaction buffer (Promega, Madison, Wis., USA) were mixed and the mixture was added in a 96-well plate. Reaction was allowed to proceed at room temperature for 1 hour. Then, luminescence was measured with a spectrophotometer (Synergy HTX Multi-Reader, BioTek). At the same time, the number of cells in each sample was measured with a cell viability analysis kit (Cell Counting Kit-8), and calculation was performed so that the lactic acid measurement value in each sample could be compared with that in the negative control for the same number of cells.
For `Nc1c(O)cccc1C(=O)CC(N)C(=O)O` (racemic) [3-hydroxy-DL-kynurenine, 3-Hydroxy-DL-kynurenine], the “lactic acid concentration-decreasing effect” value was “about 20%”. `C=C(OP(=O)([O-])O)C(=O)O.O.[Na+]` [Phospho(enol)pyruvic acid monosodium salt hydrate] was tested, and the “lactic acid concentration-decreasing effect” value was “about 15%”. For `N.N.[Cl][Pt][Cl]` [cis-diamminedichloridoplatinum, Cis-diamminedichloridoplatinum], the “lactic acid concentration-decreasing effect” value was “about 15%”. In the case of `CCN(CC)c1ccc(C=O)cc1` [diethylaminobenzaldehyde, Diethylaminobenzaldehyde], the “lactic acid concentration-decreasing effect” value is reported as “about 20%”.
